Patent publication US20220024921A1, “1,3,4-OXADIAZOLONE COMPOUND AND PHARMACEUTICAL” (NIPPON SHINYAKU CO., LTD., priority 2018, published 2022)
Counter-ions that a name gives are not always drawn.

Legend:
[1] = target: T1, PIM1 serine/threonine kinase (Homo sapiens, UniProt P11309); assay: PIM1 serine/threonine kinase inhibitory effect; format: biochemical; details: PIM1 serine/threonine kinase activity; ATP 40 μM; 30° C., 30 minutes
T1 construct: purchased Carna Bioscience, Inc
Protocol: Each test substance was prepared to 10 mM with dimethylsulfoxide (DMSO), and further diluted with DMSO so as to have concentrations of 1000, 300, 100, 30, 10, 3, 1, 0.3, 0.1, 0.03, 0.01, and 0.001 μM. Moreover, each dilution was further diluted 33.3-fold with an assay buffer to prepare a test substance solution. The composition of the assay buffer was 50 mM HEPES (pH 7.0), 0.02% NaN3, 0.01% Bovine Serum Albumin, 0.1 mM Orthovanadate, 1 mM Dithiothreitol, and 5 mM MgCl2.
5 μL of each test substance solution was added to 384-well plates (n=2), and then 2.5 μL of a substrate solution (substrate 3-biotin (Cisbio Bioassays SAS), final concentration in the reaction solution: 0.5 μM) and 2.5 μL of an ATP solution (in the cases of PIM1, 2, 3, the final concentrations in the reaction solutions were 40, 2, and 10 μM, respectively) were added, 5 μL of each of PIM1, 2, 3 serine/threonine kinase solutions (Carna Bioscience, Inc., the final concentrations in the reaction solutions were 0.15, 1.6, and 0.25 μg/ml, respectively) was finally added, and the mixture was reacted at 30° C. for 30 minutes. The test substance concentrations in the reaction solutions are 10000, 3000, 1000, 300, 100, 30, 10, 3, 1, 0.3, 0.1, and 0.01 nM.
Thereafter, 15 μL of each detection solution (62.5 nM Streptavidin-XL665 (Cisbio Bioassays SAS), […] STK antibody-Cryptate (Cisbio Bioassays SAS), 50 mM HEPES (pH 7.0), 0.8 M KF, 0.1% Bovine Serum Albumin, 20 mM ethylenediaminetetraacetic acid) was added to each well. After stirring, the mixture was reacted at 30° C. for 1 hour. Absorbance (OD620, OD665) at 620 and 665 nm was measured with a microplate reader (SpectraMax M5e, Molecular Devices, LLC).
Non-linear regression analysis was performed by an SAS system (SAS Institute Inc.) using the ratio (OD665/OD620) of the measured absorbance to calculate a test substance concentration (IC50) that inhibits PIM1 serine/threonine kinase activity by 50%.

[2] = target: PIM1 transgenic cells (Ba/F3) (Homo sapiens, UniProt P11309); assay: Proliferation inhibitory effect on PIM1 transgenic cells; format: cell-based, mouse; details: proliferation inhibition, 72 hours, Cell Counting Kit-8, read-out: PIM1 IC50
From the text: Human PIM1, 2, and 3 genes were inserted into the multi-cloning sites of retrovirus expression vectors pMYs-IRES-GFP, respectively, to prepare gene transfer vectors. Then, each gene transfer vector was introduced into packaging cells PLAT-E derived from a human fetal kidney cell line in the logarithmic growth phase, using a transfection reagent (FuGENE6, Promega Corporation). Since the culture supernatant of PLAT-E after gene transfer contained virus particles for gene transfer, the culture supernatant was collected and used as a medium for gene transfer. The medium for gene transfer was added to a plate coated with RetroNectin, and the plate was incubated to attach the virus particles to the plate. Then, a mouse pro-B cell line Ba/F3 in the logarithmic growth phase was seeded on the plate and infected with the virus to prepare PIM1, 2, or 3 transgenic cells that proliferate in a PIM 1, 2, or 3-dependent manner. The expression of PIM1, 2, or 3 protein in each cell was confirmed by Western blotting.
Each test substance was prepared to 10 mM with dimethylsulfoxide (DMSO), and diluted with DMSO so as to have concentrations of 3000, 1000, 300, 100, 30, 10, 3, and 1 μM. Moreover, each dilution was further diluted 10-fold with distilled water to prepare a test substance solution.
PIM1, 2, 3-expressing cells were seeded on a 96-well plate, and each test substance solution prepared the next day was added such that final concentrations were 10000, 3000, 1000, 300, 100, 30, 10, 3, and 1 nM. 72 hours after the addition, 10 μL of Cell Counting Kit-8 (DOJINDO LABORATORIES) was added to each well. After incubation for 1 to 4 hours, absorbance OD450 at 450 nm was measured. In addition, absorption OD650 at 650 nm as a reference wavelength was measured.
OD450-OD650 for each condition was calculated, and then the inhibition rates when OD450-OD650 of negative control (DMSO only) and OD450-OD650 of Blank (without cells) were set to 0% and 100%, respectively, were calculated. Then, non-linear regression analysis was performed for logarithmic dose and inhibition rate using a two-parameter logistic model to estimate IC50 values.

Chain of PIM1 transgenic cells (Ba/F3) (P11309 whole entry, stated change not applied): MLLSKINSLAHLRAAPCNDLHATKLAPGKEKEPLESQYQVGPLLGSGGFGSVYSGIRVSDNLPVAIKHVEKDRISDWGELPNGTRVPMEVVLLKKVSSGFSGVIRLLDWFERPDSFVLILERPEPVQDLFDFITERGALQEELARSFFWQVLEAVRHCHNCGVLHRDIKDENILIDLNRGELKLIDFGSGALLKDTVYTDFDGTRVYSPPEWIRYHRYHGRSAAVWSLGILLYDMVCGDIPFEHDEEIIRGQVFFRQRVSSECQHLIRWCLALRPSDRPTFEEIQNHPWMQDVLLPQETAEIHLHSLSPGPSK
T1 sequence (P11309 whole entry): as the sequence (P11309 whole entry, stated change not applied) above

SMILES	IC50 [1] [nM]	GI50 [2] [nM]
C[C@H](Nc1cc(-c2n[nH]c(=O)o2)cc(F)c1F)C1CCNCC1 [Example 89, 5-(3,4-difluoro-5-{[(1S)-1-(piperidin-4-yl)ethyl]amino}phenyl)-1,3,4-oxadiazol-2(3H)-one]	5.4	250
CC1CC(CNc2cc(-c3n[nH]c(=O)o3)ccc2C(F)(F)F)CCN1 (stereo not shown) [Example 143, 5-[3-{[(2-methylpiperidin-4-yl)methyl]amino}-4-(trifluoromethyl)phenyl]-1,3,4-oxadiazol-2(3H)-one hydrochloride]	14	610
C[C@H]1CNCC[C@H]1CNc1cc(-c2n[nH]c(=O)o2)ccc1C(F)(F)F [Example 141, 5-[3-({[(3R,4R)-3-methylpiperidin-4-yl]methyl}amino)-4-(trifluoromethyl)phenyl]-1,3,4-oxadiazol-2(3H)-one hydrochloride]	7.1	250
O=c1[nH]nc(-c2ccc(Cl)c(NC3CCNCC3)c2)o1 [Example 31, 5-{4-chloro-3-[(piperidin-4-yl)amino]phenyl}-1,3,4-oxadiazol-2(3H)-one hydrochloride]	70	3300
C[C@H](Nc1cc(-c2n[nH]c(=O)o2)c(Cl)cc1Cl)C1CCNCC1 [Example 96, 5-(2,4-dichloro-5-{[(1S)-1-(piperidin-4-yl)ethyl]amino}phenyl)-1,3,4-oxadiazol-2(3H)-one hydrochloride]	6.2	380
C[C@H](Nc1cc(-c2n[nH]c(=O)o2)ccc1C(F)(F)F)[C@H]1CCC[C@@H](N)C1 [Example 194, 5-[3-({(1S)-1-[(1S,3R)-3-aminocyclohexyl]ethyl}amino)-4-(trifluoromethyl)phenyl]-1,3,4-oxadiazol-2(3H)-one hydrochloride]	12	280
O=c1[nH]nc(-c2ccc(C(F)(F)F)c(NC[C@@H]3CCNC[C@H]3F)c2)o1 [Example 127, 5-[3-({[(3S,4S)-3-fluoropiperidin-4-yl]methyl}amino)-4-(trifluoromethyl)phenyl]-1,3,4-oxadiazol-2(3H)-one hydrochloride]	21	440
O=c1[nH]nc(-c2ccc(C(F)(F)F)c(NCCN3CCNCC3)c2)o1 [Example 65, 5-[3-{[2-(piperazin-1-yl)ethyl]amino}-4-(trifluoromethyl)phenyl]-1,3,4-oxadiazol-2(3H)-one dihydrochloride]	14	1000
N[C@@H]1CCCN(CCNc2cc(-c3n[nH]c(=O)o3)ccc2C(F)(F)F)C1 [Example 72, 5-[3-({2-[(3R)-3-aminopiperidin-1-yl]ethyl}amino)-4-(trifluoromethyl)phenyl]-1,3,4-oxadiazol-2(3H)-one dihydrochloride]	8.4	920
CC(=O)N[C@H]1C[C@@H](CNc2cc(-c3n[nH]c(=O)o3)ccc2C(F)(F)F)C1(C)C [Example 184, N-[(1S,3R)-2,2-dimethyl-3-{[5-(5-oxo-4,5-dihydro-1,3,4-oxadiazol-2-yl)-2-(trifluoromethyl)anilino]methyl}cyclobutyl]acetamide]	65	880
O=c1[nH]nc(-c2ccc(C(F)(F)F)c(/C=C/C3CCNCC3)c2)o1 [Example 30, 5-{3-[(E)-2-(piperidin-4-yl)ethenyl]-4-(trifluoromethyl)phenyl}-1,3,4-oxadiazol-2(3H)-one hydrochloride]	24	970
C[C@H](Nc1cc(-c2n[nH]c(=O)o2)ccc1Cl)C1CCNCC1 [Example 77, 5-(4-chloro-3-{[(1S)-1-(piperidin-4-yl)ethyl]amino}phenyl)-1,3,4-oxadiazol-2(3H)-one dihydrochloride]	5.8	180
C[C@H](Nc1cc(-c2n[nH]c(=O)o2)cc2[nH]ncc12)C1CCNCC1 [Example 100, 5-(4-{[(1S)-1-(piperidin-4-yl)ethyl]amino}-1H-indazol-6-yl)-1,3,4-oxadiazol-2(3H)-one dihydrochloride]	1.9	260

Compounds with a lower GI50 [2], results first:

IC50 [1] [nM]	GI50 [2] [nM]	SMILES
4.2	110	C[C@@H]([C@H]1CC[C@H](N)CC1)N1CCOc2c(F)cc(-c3n[nH]c(=O)o3)cc21 [Example 249, 5-(4-{(1S)-1-[(1r,4S)-4-aminocyclohexyl]ethyl}-8-fluoro-3,4-dihydro-2H-1,4-benzoxazin-6-yl)-1,3,4-oxadiazol-2(3H)-one]
	87	C[C@H](Nc1cc(-c2n[nH]c(=O)o2)ccc1C(F)(F)F)C12CC(N)(C1)C2 [Example 185, 5-[3-{[(1S)-1-(3-aminobicyclo[1.1.1]pentan-1-yl)ethyl]amino}-4-(trifluoromethyl)phenyl]-1,3,4-oxadiazol-2(3H)-one]
3.7	79	N[C@H]1CC[C@H](COc2cc(-c3n[nH]c(=O)o3)ccc2Cl)CC1 [Example 241, 5-(3-{[(1r,4r)-4-aminocyclohexyl]methoxy}-4-chlorophenyl)-1,3,4-oxadiazol-2(3H)-one]
2.1	61	C[C@H](Nc1cc(-c2n[nH]c(=O)o2)cc(C(F)(F)F)c1Cl)C1CCNCC1 [Example 101, 5-[4-chloro-3-{[(1S)-1-(piperidin-4-yl)ethyl]amino}-5-(trifluoromethyl)phenyl]-1,3,4-oxadiazol-2(3H)-one dihydrochloride]
3.3	57	O=c1[nH]nc(-c2ccc(C(F)(F)F)c(N[C@@H](CF)C3CCNCC3)c2)o1 [Example 152, 5-[3-{[(1R)-2-fluoro-1-(piperidin-4-yl)ethyl]amino}-4-(trifluoromethyl)phenyl]-1,3,4-oxadiazol-2(3H)-one hydrochloride]
3.7	45	C[C@H](Nc1cc(-c2n[nH]c(=O)o2)ccc1Cl)[C@H]1CC[C@H](N)CC1 [Example 148, 5-[3-({(1S)-1-[(1r,4S)-4-aminocyclohexyl]ethyl}amino)-4-chlorophenyl]-1,3,4-oxadiazol-2(3H)-one hydrochloride]
2.2	44	CN[C@H]1CC[C@H]([C@H](C)Nc2cc(-c3n[nH]c(=O)o3)ccc2C(F)(F)F)CC1 [Example 189, 5-[3-({(1S)-1-[(1r,4S)-4-(methylamino)cyclohexyl]ethyl}amino)-4-(trifluoromethyl)phenyl]-1,3,4-oxadiazol-2(3H)-one hydrochloride]
2	28	C=C(C)c1c(F)cc(-c2n[nH]c(=O)o2)cc1N[C@@H](C)[C@H]1CC[C@H](N)CC1 [Example 232, 5-[3-({(1S)-1-[(1r,4S)-4-aminocyclohexyl]ethyl}amino)-5-fluoro-4-(prop-1-en-2-yl)phenyl]-1,3,4-oxadiazol-2(3H)-one hydrochloride]
2.2	25	C[C@H](Nc1cc(-c2n[nH]c(=O)o2)cc(F)c1C(F)(F)F)[C@H]1C[C@@H](N)C1 [Example 165, 5-[3-({(1S)-1-[(1s,3R)-3-aminocyclobutyl]ethyl}amino)-5-fluoro-4-(trifluoromethyl)phenyl]-1,3,4-oxadiazol-2(3H)-one]
